Literature values in publication PMC8279981, “A first-in-human, phase 1 study of the NEDD8 activating enzyme E1 inhibitor TAS4464 in patients with advanced solid tumors” (Investigational New Drugs, 2021).
Read-outs that look alike come from different tables or passages of the source.

Tests used:
[1] = tested on: patients; design: method as in PMID 26561559, PMID 25733005, PMID 27056178, PMID 26423795; conditions: clinical trials; cited from earlier work
[2] = tested on: bleomycin-induced idiopathic pulmonary fibrosis models; design: method as in PMID 28469786; conditions: cited from earlier work
[3] = tested on: rats; design: method as in PMID 27551465, PMID 22927439; conditions: cited from earlier work
[4] = tested on: cells derived from macrophages; design: method as in PMID 22927439; conditions: cited from earlier work

In the case of `NS(=O)(=O)OC[C@@H]1C[C@@H](n2ccc3c(N[C@H]4CCc5ccccc54)ncnc32)C[C@@H]1O` [MLN4924], the “abnormal liver function tests (ALT and AST increased)” value [1] is given as “one of the major AEs”, the “efficacy in pulmonary fibrosis models” value [2] is given as “efficacy in bleomycin-induced idiopathic pulmonary fibrosis models has been shown” and the “AST, ALT, sorbitol dehydrogenase” value ([3]; combination of TNF-α and MLN4924) is given as “Increases in laboratory values”. For the same compound, the “AST, ALT, sorbitol dehydrogenase” value ([3]; rats, MLN4924 administration alone) was “no increases in AST, ALT, or sorbitol dehydrogenase” and the “production of TNF-α” value [4] was “suppress the production of TNF-α”.
